Key:
human glioma cells (U87) [1] = test: Suicide gene cell therapy with TSCs (1) expressing yCD-UPRT, mixture transplantation model; assay type: in vivo; settings: control group 2: TSC (−)/5FC (+) 5 mg/day, only U87 transplanted
human glioma cells (U87) [2] = test: Suicide gene cell therapy with TSCs (1) expressing yCD-UPRT, transplantation model after tumor formation; assay type: in vivo; settings: control group 2: TSC (−)/5FC (+) 5 mg/day, only U87 transplanted
Protocol: First, 1×10^4 cells/2 μl U87-ffLuc was transplanted to the right striate body (2 mm away from the anterior fontanel to the right and 3 mm deep from the brain surface) of each T cell-deficient mouse (female BALB/c nude mouse, 20 g, 6 w) subjected to general anesthesia, and 1×10^6 cells/2 μl TSCs expressing yCD-UPRT (yCD-UPRT is introduced into NS/PCs with the lentiviral vector) were stereotactically transplanted to the same site 5 days later. The take of tumor cells was confirmed 2 days later with an IVIS, that is, an in vivo imaging system, and 500 μl of 5-FC (10 mg/ml) was then intraperitoneally administered to a treated group once per day for 2 weeks (TSC (+)/5-FC (+) 5 mg/day, n=9). Next, 500 μl of 1 M PBS was administered to a control group 1 for 2 weeks in the same way (control group 1: TSC (+)/5-FC (−), n=9). A group to which only U87-ffLuc was transplanted was also generated as another control group, and 500 μl of 5-FC (10 mg/ml) was intraperitoneally administered to this once per day for 2 weeks (control group 2: TSC (−)/5-FC (+) 5 mg/day, n=3). […]
(§1) The survival analysis was performed while the luminescence imaging analysis (IVIS) of tumors was performed chronologically. […]

human glioma cells (U87) [3] = test: Suicide gene cell therapy with TSCs expressing yCD-UPRT with CRISPR/Cas9, transplantation model after tumor formation; assay type: in vivo, mouse; settings: control group 2: TSC (−)/5FC (+), only U87 transplanted
Protocol: First, 1×10^4 cells/2 μl U87-ffLuc was transplanted to the right striate body (2 mm away from the anterior fontanel to the right and 3 mm deep from the brain surface) of each T cell-deficient mouse (female BALB/c nude mouse, 20 g, 6 w) subjected to general anesthesia, and 1×10^6 cells/2 μl TSCs expressing yCD-UPRT (yCD-UPRT is introduced into iPS cells with CRISPR/Cas9) were stereotactically transplanted to the same site 5 days later. The take of tumor cells was confirmed 2 days later with an IVIS, that is, an in vivo imaging system, and further 2 days later, 500 μl of 5-FC (10 mg/ml) was intraperitoneally administered to a treated group once per day for 2 weeks (TSC (+)/5-FC (+), n=8). Then, 500 μl of 1 M PBS was administered to a control group 1 for 2 weeks in the same way (control group 1: TSC/5-FC (−), n=7). A group to which only U87-ffLuc was transplanted was also generated as another control group, and 500 μl of 5-FC (10 mg/ml) was intraperitoneally administered to this once per day for 2 weeks (control group 2: TSC (−)/5-FC (+), n=3).
A method for evaluating tumors, the analysis of survival curves and the like were all performed in the same way as the above. […]
as §1

human glioma cells (U87) [4] = test: Suicide gene cell therapy with Tet-induced TSCs (3) expressing yCD-UPRT, mixture transplantation model; assay type: in vivo, mouse; settings: control group 2: TSC (−)/5-FC (+)/Dox (+), only U87-ffLuc transplanted
Protocol: First, 1×10^5 cells/2 μl U87-ffLuc and 5×10^5 cells/2 μl TSCs (3) (Tet-induced yCD-UPRT was introduced into iPS cells with the lentiviral vector) were mixed and stereotactically transplanted to the right striate body (2 mm away from the anterior fontanel to the right and 3 mm deep from the brain surface) of each T cell-deficient mouse (female BALB/c nude mouse, 20 g, 6 w) subjected to general anesthesia. Then, 500 μl of 5-FC (10 mg/ml) was intraperitoneally administered once per day for 2 weeks from the next day (treated group 1: TSC (+)/5-FC (+)/Dox (+), n=7). Next, 500 μl of 1 M PBS was administered to a control group 1 for 2 weeks in the same way (control group 1: TSC (+)/[…], n=9). A group to which only U87-ffLuc was transplanted was also generated as another control group, and 500 μl of 5-FC (10 mg/ml) was intraperitoneally administered to this once per day for 2 weeks (control group 2: TSC (−)/5-FC (+)/Dox (+), n=4). Feed containing 200 mg/kg of Dox was orally ingested. A method for evaluating tumors, the analysis of survival curves and the like were all performed in the same way as the above. […]
Survival analysis was performed, while the luminescence imaging analysis (IVIS) of the tumors was performed chronologically. […]

[5] = system: NS/PCs expressing yCD-UPRT (TSCs (1), lentiviral vector); test: Cell death induction by 5-FC added to the medium; assay type: cell-based, human; settings: 1 μg/ml 5-FC added to the medium
Excerpt: Secondary to quaternary NS/PCs differentiation-induced from the human iPS cells were collected by a centrifuge, disassembled into single cells using TrypLE Select, suspended in NS medium, inoculated into a low adhesive flask at a concentration of 1×10^5 cells/ml, infected with a CSIV-EF-yCD-UPRT-IRES2-hKO1 lentiviral vector at an MOI (multiplicity of infection) of 1 to 2 and cultured for 7 days with the medium replaced every 3 to 4 days. The obtained NS/PCs were infected with the CSIV-EF-yCD-UPRT-IRES2-hKO1 lentiviral vector at an MOI of 1 to 2 in the same way again to prepare therapeutic stem cells (TSCs (1)), that is, NS/PCs expressing yCD-UPRT. It was confirmed that the cell death of the NS/PCs expressing yCD-UPRT was induced by adding 1 μg/ml 5-FC (fluorocytosine) to the medium.

[6] = system: NS/PCs expressing yCD-UPRT (TSCs (2), GAPDH gene region, CRISPR/Cas9); test: Cell death induction by 5-FC added to the medium; assay type: cell-based, human; settings: 1 μg/ml 5-FC added to the medium
Protocol: Differentiation induction from iPS cells in which yCD-UPRT was incorporated into the GAPDH gene region to NS/PCs was performed to obtain secondary to quinary NS/PCs (TSCs (2)). Culture was performed with 2 μg/ml blasticidin S always added to the medium. It was confirmed that the cell death of the NS/PCs expressing yCD-UPRT was induced by adding 1 μg/ml 5-FC to the medium.

[7] = system: Tet-induced iPS cells expressing yCD-UPRT; test: Cell death induction by Dox and 5-FC added to the medium; assay type: cell-based, human; settings: 1 μg/ml doxycycline (Dox) and 1 μg/ml 5-FC added to the medium
Protocol: Human iPS cells were infected with the CSIV-yCD-UPRT-TRE-EF-KT lentiviral vector at an MOI of around 15 and cultured, the clones were then sorted with a cell sorter to obtain an iPS cell line expressing hKO1 steadily and highly. It was confirmed that the cell death of the Tet-induced iPS cells expressing yCD-UPRT was induced by adding 1 μg/ml doxycycline (Dox) and 1 μg/ml 5-FC to the medium.

[8] = system: Tet-induced NS/PCs expressing yCD-UPRT; test: as above; assay type: cell-based, human; settings: 1 μg/ml Dox and 1 μg/ml 5-FC added to the medium
Protocol: Differentiation induction from the Tet-induced iPS cells expressing yCD-UPRT to NS/PCs was performed to obtain secondary and tertiary Tet-induced NS/PCs expressing yCD-UPRT.

Nc1nc(=O)[nH]cc1F [5-FC, 5-fluorocytosine]
average survival period (human glioma cells (U87) [1]): 21 days
average survival period (human glioma cells (U87) [2]): 21 days
average survival period (human glioma cells (U87) [3]): 21 days
average survival period (human glioma cells (U87) [4]): 19 days
cell death [5]: induced
cell death [6]: induced
cell death [7]: induced
cell death [8]: induced

From patent US12090172B2, “Suicide gene therapeutic agent for brain tumors using pluripotent stem cell” (KEIO UNIVERSITY, priority 2017, dated 2024)
